# Experimental data reported in patent publication US20030236439A1, “Non-steroidal analogs of 2-methoxyestradiol” (priority 2002, published 2003).
# What was measured:
# [1] = tested on: chick embryo chorioallantoic membrane; test: chick embryo chorioallantoic membrane (CAM) assay; assay type: in vivo; conditions: 100 μg methylcellulose disk, after 48 hours
# From the text: Anti-proliferative activity can be evaluated in situ by testing the ability of the new non-steroidal estradiol analogs to inhibit the proliferation of new blood vessel cells (angiogenesis). A suitable assay is the chick embryo chorioallantoic membrane (CAM) assay described by Crum et al. Science 230:1375 (1985). See also, U.S. Pat. No. 5,001,116, hereby incorporated by reference, which describes the CAM assay. Briefly, fertilized chick embryos are removed from their shell on day 3 or 4, and a methylcellulose disc containing the drug is implanted on the chorioallantoic membrane. The embryos are examined 48 hours later and, if a clear avascular zone appears around the methylcellulose disc, the diameter of that zone is measured.
# MCF-7 cell = conditions: in vitro, over a wide range of concentrations; cited from earlier work
# [2] = tested on: vascular endothelial cell proliferation; conditions: vascular endothelial vs tumor cell proliferation; cited from earlier work
SMILES,effect on cell mitosis and growth of new blood vessels (avascular zone) [1],estrogenic activity (MCF-7 cell),half-maximal inhibition of endothelial cell proliferation at lower concentration than tumor cell proliferation [2] [logs]
COc1cc2c(cc1O)CC[C@@H]1[C@@H]2CC[C@]2(C)[C@@H](O)CC[C@@H]12 [2-methoxyestradiol],inhibit cell mitosis and the growth of new blood vessels,not estrogenic,–
CO[C@@H]1[C@H](OC(=O)NC(=O)CCl)CC[C@]2(CO2)[C@H]1[C@@]1(C)O[C@@H]1CC=C(C)C [AGM-1470],–,–,4
